# Reference: ChEMBL document CHEMBL4673209, “Discovery of a novel potent GPR40 full agonist” (Bioorg Med Chem Lett, 2018)
# Calls of active or inactive are those of the source. The rule behind the calls is not given here.
# How the values were obtained:
# [1] = target: Free fatty acid receptor 1 (Rattus norvegicus, UniProt Q8K3T4); assay: Agonist activity at rat GPR40 transfected in HEK293 cells assessed as increase in intracellular calcium level incubated for 1 hr by Fluo-8 dye based fluorescence analysis; assay type: functional, cell-based
# [2] = target: T1, Free fatty acid receptor 1 (Homo sapiens, UniProt O14842); assay: Agonist activity at human GPR40 transfected in HEK293 cells assessed as increase in intracellular calcium level incubated for 1 hr by Fluo-8 dye based fluorescence analysis; assay type: functional, cell-based
# [3] = target: T1, Free fatty acid receptor 1; assay: Agonist activity at GPR40 in human islets assessed as induction of glucose-stimulated insulin secretion at 10 uM; assay type: tissue-based; settings: Pancreatic islet
# [4] = target: Free fatty acid receptor 1 (Rattus norvegicus) (UniProt Q8K3T4); assay: Agonist activity at GPR40 in rat INS1 (832/13) cells assessed as induction of glucose-stimulated insulin secretion in presence of 10 mM glucose; assay type: cell-based
# [5] = system: Mus musculus; assay: In vivo agonist activity at GPR119 in GPR40 knock-out mouse assessed as induction of GLP-1 secretion at 30 mg/kg; assay type: functional, organism-based
# [6] = system: Mus musculus; assay: In vivo agonist activity at GPR119 in C57 mouse assessed as induction of GLP-1 secretion at 30 mg/kg; assay type: functional, organism-based
# [7] = organism: Mus musculus; assay: Anti-glycemic activity in C57 mouse assessed as reduction in blood glucose excursion measured for 120 mins by IPGTT; assay type: functional, organism-based
# [8] = system: Mus musculus; assay: Induction of GLP-1 secretion in GPR40 knock-out mouse at 100 mg/kg; assay type: functional, organism-based
# [9] = system: Mus musculus; assay: In vivo agonist activity at GPR40 in C57 mouse assessed as induction of GLP1 secretion at 100 mg/kg; assay type: functional, organism-based
# [10] = system: Rattus norvegicus; assay: Anti-glycemic activity in fasted Sprague-Dawley ZDF rat assessed as reduction in post-prandial hyperglycemia by measuring AUC(0 to 2 hrs) for blood glucose at 10 mg/kg administered daily for 8 days and measured on day 8 by OGTT; assay type: functional; settings: time 8 day
# [11] = system: Rattus norvegicus; assay: Anti-glycemic activity in fasted Sprague-Dawley ZDF rat assessed as reduction in post-prandial hyperglycemia by measuring AUC(0 to 2 hrs) for blood glucose at 10 mg/kg administered for 1 day and measured on day 1 by OGTT; assay type: functional
# [12] = system: Rattus norvegicus; assay: Anti-glycemic activity in fasted Sprague-Dawley ZDF rat assessed as reduction in post-prandial hyperglycemia by measuring AUC(0 to 2 hrs) for blood glucose at 3 mg/kg administered daily for 8 days and measured on day 8 by OGTT; assay type: functional; settings: time 8 day
# [13] = system: Rattus norvegicus; assay: Anti-glycemic activity in fasted Sprague-Dawley ZDF rat assessed as reduction in post-prandial hyperglycemia by measuring AUC(0 to 2 hrs) for blood glucose at 3 mg/kg administered for 1 day and measured on day 1 by OGTT; assay type: functional
# [14] = system: Rattus norvegicus; assay: Anti-glycemic activity in fasted Sprague-Dawley ZDF rat assessed as increase in insulin secretion by measuring insulin level in plasma at 3 mg/kg administered 30 mins prior to glucose challenge measured after 140 mins by OGTT; assay type: functional; settings: time 170 min, 2.833 h
# [15] = system: Rattus norvegicus; assay: Anti-glycemic activity in fasted Sprague-Dawley ZDF rat assessed as increase in insulin secretion by measuring insulin level in plasma at 10 mg/kg administered 30 mins prior to glucose challenge measured after 140 mins by OGTT; assay type: functional; settings: time 170 min, 2.833 h
# [16] = organism: Mus musculus; assay: Anti-glycemic activity in GPR40 knockout mouse assessed as reduction in blood glucose excursion measured for 120 mins by IPGTT; assay type: functional, organism-based
# Sequence of Free fatty acid receptor 1 (Rattus norvegicus, UniProt Q8K3T4) (Q8K3T4 whole entry): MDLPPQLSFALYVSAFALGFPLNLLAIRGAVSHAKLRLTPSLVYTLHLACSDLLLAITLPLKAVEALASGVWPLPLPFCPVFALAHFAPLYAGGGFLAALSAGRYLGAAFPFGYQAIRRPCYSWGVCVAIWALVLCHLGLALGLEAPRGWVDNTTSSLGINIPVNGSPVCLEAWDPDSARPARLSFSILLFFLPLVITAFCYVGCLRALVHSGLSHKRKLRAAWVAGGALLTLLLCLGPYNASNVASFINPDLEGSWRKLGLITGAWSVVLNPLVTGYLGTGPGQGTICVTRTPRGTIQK
# T1 sequence (O14842 whole entry): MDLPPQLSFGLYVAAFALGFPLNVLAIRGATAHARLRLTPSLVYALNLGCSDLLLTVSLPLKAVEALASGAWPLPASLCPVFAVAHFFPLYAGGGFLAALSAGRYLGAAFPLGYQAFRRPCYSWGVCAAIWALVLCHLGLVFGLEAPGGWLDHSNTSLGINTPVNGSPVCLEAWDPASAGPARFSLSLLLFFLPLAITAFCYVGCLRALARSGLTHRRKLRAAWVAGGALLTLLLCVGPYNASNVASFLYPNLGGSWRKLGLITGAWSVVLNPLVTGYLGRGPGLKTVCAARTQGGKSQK
# Sequence of Free fatty acid receptor 1 (Rattus norvegicus) (Q8K3T4 whole entry): as the sequence (Q8K3T4 whole entry) above
Compound,EC50 [1] [nM],EC50 [2] [nM],also measured
CCCCc1nc(COc2cccc([C@@H](CC(=O)O)C3CC3)c2)cnc1-c1cc(OC)ccc1F,28,2.5,–
COc1ccc(F)c(-c2ncc(COc3cccc([C@@H](CC(=O)O)C4CC4)c3)nc2CC(C)(C)C)c1,–,–,EC50 ([2]; hek293): 2 nM
COc1ccc(F)c(-c2ncc(COc3cccc([C@@H](CC(=O)O)C4CC4)c3)nc2-c2cc(C)cc(C)c2)c1,–,7.5,–
COc1ccc(F)c(-c2ccc(COc3cccc([C@@H](CC(=O)O)C4CC4)c3)cc2C2=CCCC2(C)C)c1,11.4,3.5,"Activity ([3]; filed as agonist): Active; Activity ([4]; INS-1 832/13, filed as agonist): Active"
COc1ccc(F)c(-c2ncc(COc3cccc([C@@H](CC(=O)O)C4CC4)c3)nc2C=C(C)C)c1,–,9.4,–
CC(C)OC(=O)N1CCC(Oc2ncnc3c2CCN3c2ccc(S(C)(=O)=O)cc2F)CC1,–,–,Activity [5]: Active; Activity [6]: Active
COc1ccc(F)c(-c2ncc(COc3cccc([C@@H](CC(=O)O)C4CC4)c3)cc2C2=CCCC2(C)C)c1,64.4,21.3,–
COc1cc(-c2ncc(COc3cccc([C@@H](CC(=O)O)C4CC4)c3)nc2C2=CCCC2(C)C)c(F)cn1,–,11,–
COc1ccc(F)c(-c2cnc(COc3cccc([C@@H](CC(=O)O)C4CC4)c3)nc2C2=CCCC2(C)C)c1,70.1,12.4,–
COc1ccc(F)c(-c2ncc(COc3cccc([C@@H](CC(=O)O)C4CC4)c3)nc2N2CC3(CCC3)C2)c1,–,4.5,–
COc1ccc(Cl)cc1C(=O)NCCc1ccc(S(=O)(=O)NC(=O)NC2CCCCC2)cc1,–,–,Activity [7]: Active
Cc1cc(OCCCS(C)(=O)=O)cc(C)c1-c1cccc(COc2ccc3c(c2)OC[C@H]3CC(=O)O)c1 [FASIGLIFAM],–,–,Activity [8]: inactive; Activity [9]: inactive; Activity [10]: 135502 ng/mL.hr; Activity [11]: 59293 ng/mL.hr; Activity [12]: 20561 ng/mL.hr; Activity [13]: 12194 ng/mL.hr; Activity [14]: 4020 ng/mL; Activity [15]: 19250 ng/mL; Activity [7]: Active; Activity [16]: inactive; Activity [3]: inactive; Activity ([4]; INS-1 832/13): inactive

# Continued, in another order:
EC50 [1] [nM],EC50 [2] [nM],Compound,also measured
201,–,COc1ccc(F)c(-c2ncc(COc3cccc([C@@H](CC(=O)O)C4CC4)c3)nc2C2=CCCC2(C)C)c1,–
46,11,COc1ccc(F)c(-c2cnc(COc3cccc([C@@H](CC(=O)O)C4CC4)c3)cc2C2=CCCC2(C)C)c1,–
44.7,9.4,COc1ccc(F)c(-c2ccc(COc3cccc([C@@H](CC(=O)O)C4CC4)c3)nc2C2=CCCC2(C)C)c1,–
–,9.6,COc1ccc(F)c(-c2ncc(COc3cccc([C@@H](CC(=O)O)C4CC4)c3)nc2OCC(C)C)c1,–
